# Results taken from ChEMBL document CHEMBL4392834, “Polymorphs, co-crystal structure and pharmacodynamics study of MBRI-001, a deuterium-substituted plinabulin derivative as a tubulin polymerization inhibitor” (Bioorg Med Chem, 2019).
# pIC50: −log10 of the molar value.
# Columns and labels:
# [1] = Toxicity in Balb/c nude mouse dosed intravenously every 3 days for consecutive 21 days; assay type: organism-based; settings: in vivo, iv
# A549 [2] = assay: Antiproliferative activity in human A549 cells assessed as inhibition of cell proliferation at 1.5625 nM incubated for 72 hrs by MTT assay; assay type: functional; settings: A549, 72 h
# A549 [3] = assay: Antiproliferative activity in human A549 cells assessed as inhibition of cell proliferation at 12.5 nM incubated for 72 hrs by MTT assay; assay type: functional; settings: A549, 72 h
# A549 [4] = assay: Antiproliferative activity in human A549 cells assessed as inhibition of cell proliferation at 50 nM incubated for 72 hrs by MTT assay; assay type: functional; settings: A549, 72 h
# A549 [5] = assay: Antitumor activity against human A549 cells xenografted in Balb/c nude mouse assessed as tumor weight at 12 mg/kg, iv dosed as Q3D x 3 weeks regime (reference value: 0.596 +/- 0.042 g); assay type: functional
# NCI-H1975 [6] = assay: Antiproliferative activity in human NCI-H1975 cells assessed as inhibition of cell proliferation at 50 nM incubated for 72 hrs by MTT assay; assay type: functional; settings: NCI-H1975, 72 h
# NCI-H1975 [7] = assay: Antiproliferative activity in human NCI-H1975 cells assessed as inhibition of cell proliferation at 25 nM incubated for 72 hrs by MTT assay; assay type: functional; settings: NCI-H1975, 72 h
# A549 [8] = assay: Antitumor activity against human A549 cells xenografted in Balb/c nude mouse assessed as tumor volume at 12 mg/kg, iv dosed as Q3D x 3 weeks regime relative to untreated control; assay type: functional
# NCI-H1975 [9] = assay: Cytotoxicity in human NCI-H1975 cells assessed as reduction in cell viability incubated for 72 hrs by MTT assay; assay type: functional, cell-based; settings: NCI-H1975, 72 h
# [10] = Toxicity in human A549 cells xenografted Balb/c nude mouse assessed as body weight change weight at 6 mg/kg, iv dosed on day 0, 3, 6, 9, 12, 15 and 18 regime (reference value: 6.96%); assay type: organism-based; settings: in vivo
# A549 [11] = assay: Antiproliferative activity in human A549 cells assessed as inhibition of cell proliferation at 6.25 nM incubated for 72 hrs by MTT assay; assay type: functional; settings: A549, 72 h
# NCI-H1975 [12] = assay: Antiproliferative activity in human NCI-H1975 cells assessed as inhibition of cell proliferation at 6.25 nM incubated for 72 hrs by MTT assay; assay type: functional; settings: NCI-H1975, 72 h
# A549 [13] = assay: Antitumor activity against human A549 cells xenografted in Balb/c nude mouse assessed as tumor weight at 3 mg/kg, iv dosed as Q3D x 3 weeks regime (reference value: 0.596 +/- 0.042 g); assay type: functional
# A549 [14] = assay: Cytotoxicity in human A549 cells assessed as reduction in cell viability incubated for 72 hrs by MTT assay; assay type: functional, cell-based; settings: A549, 72 h
# A549 [15] = assay: Antiproliferative activity in human A549 cells assessed as inhibition of cell proliferation at 25 nM incubated for 72 hrs by MTT assay; assay type: functional; settings: A549, 72 h
# A549 [16] = assay: Antitumor activity against human A549 cells xenografted in Balb/c nude mouse assessed as tumor volume at 3 mg/kg, iv dosed as Q3D x 3 weeks regime relative to untreated control; assay type: functional
# NCI-H1975 [17] = assay: Antiproliferative activity in human NCI-H1975 cells assessed as inhibition of cell proliferation at 3.125 nM incubated for 72 hrs by MTT assay; assay type: functional; settings: NCI-H1975, 72 h
# NCI-H1975 [18] = assay: Antiproliferative activity in human NCI-H1975 cells assessed as inhibition of cell proliferation at 1.5625 nM incubated for 72 hrs by MTT assay; assay type: functional; settings: NCI-H1975, 72 h
# A549 [19] = assay: Antitumor activity against human A549 cells xenografted in Balb/c nude mouse assessed as tumor weight at 6 mg/kg, iv dosed as Q3D x 3 weeks regime (reference value: 0.596 +/- 0.042 g); assay type: functional
# [20] = Toxicity in human A549 cells xenografted Balb/c nude mouse assessed as body weight change weight at 3 mg/kg, iv dosed on day 0, 3, 6, 9, 12, 15 and 18 regime (reference value: 6.96%); assay type: organism-based; settings: in vivo
# A549 [21] = assay: Antiproliferative activity in human A549 cells assessed as inhibition of cell proliferation at 3.125 nM incubated for 72 hrs by MTT assay; assay type: functional; settings: A549, 72 h
# [22] = Toxicity in human A549 cells xenografted Balb/c nude mouse assessed as body weight change weight at 12 mg/kg, iv dosed on day 0, 3, 6, 9, 12, 15 and 18 regime (reference value: 6.96%); assay type: organism-based; settings: in vivo
# A549 [23] = assay: Antitumor activity against human A549 cells xenografted in Balb/c nude mouse assessed as tumor volume at 6 mg/kg, iv dosed as Q3D x 3 weeks regime relative to untreated control; assay type: functional
# NCI-H1975 [24] = assay: Antiproliferative activity in human NCI-H1975 cells assessed as inhibition of cell proliferation at 12.5 nM incubated for 72 hrs by MTT assay; assay type: functional; settings: NCI-H1975, 72 h
# A549 [25] = assay: Antitumor activity against human A549 cells xenografted in Balb/c nude mouse assessed as tumor weight at 10 mg/kg, iv dosed as QW x 3 weeks regime (reference value: 0.596 +/- 0.042 g); assay type: functional
# [26] = Toxicity in human A549 cells xenografted Balb/c nude mouse assessed as body weight change weight at 10 mg/kg, iv dosed on day 0, 7 and 14 (reference value: 6.96%); assay type: organism-based; settings: in vivo
# A549 [27] = assay: Antitumor activity against human A549 cells xenografted in Balb/c nude mouse assessed as tumor volume at 10 mg/kg, iv dosed as QW x 3 weeks regime relative to untreated control; assay type: functional
# Tubulin (Homo sapiens) = Tubulin (Homo sapiens) (UniProt P68371+Q9H4B7+P0DPH7+P68366+Q13509+Q71U36+P04350+Q3ZCM7+P07437+P68363+Q9BQE3+Q6PEY2+Q13885+Q9BVA1+Q9BUF5); assay: Inhibition of tubulin (unknown origin) polymerization at 5 uM; assay type: protein-complex assay
SMILES,inhibition at 0.0015625 µM (A549 [2]),inhibition at 0.0125 µM (A549 [3]),inhibition at 0.05 µM (A549 [4]),Activity (A549 [5]),inhibition at 0.05 µM (NCI-H1975 [6]),inhibition at 0.025 µM (NCI-H1975 [7]),T/C (A549 [8]),pIC50 (NCI-H1975 [9]),Activity [10],inhibition at 0.00625 µM (A549 [11]),inhibition at 0.00625 µM (NCI-H1975 [12]),pIC50 (A549 [14]),inhibition at 0.025 µM (A549 [15]),inhibition at 0.003125 µM (NCI-H1975 [17]),inhibition at 0.0015625 µM (NCI-H1975 [18]),Activity (A549 [19]),inhibition at 0.003125 µM (A549 [21]),Activity [22],T/C (A549 [23]),inhibition at 0.0125 µM (NCI-H1975 [24]),further results
[2H]/C(c1nc[nH]c1C(C)(C)C)=c1/[nH]c(=O)/c(=C/c2ccccc2)[nH]c1=O,0.92 to 9.22%,83.2 to 86.3%,83.2 to 87.9%,0.308 g,90.8 to 91.7%,90.4 to 91.5%,54.39%,8.03,6.78%,82 to 86.7%,12.3 to 22.6%,8.60,88 to 88.7%,3.64 to 12.3%,2.75 to 10.3%,0.344 g,54.8 to 61.6%,2.36%,59.01%,70.7 to 81.7%,LD50 at 21 days [1]: 18.9 mg/kg; Activity (A549 [13]): 0.442 g; T/C (A549 [16]): 70.88%; Activity [20]: 6.75%
CC(=O)O[C@@]12CO[C@@H]1C[C@H](O)[C@@]1(C)C(=O)[C@H](O)C3=C(C)[C@@H](OC(=O)[C@H](O)[C@@H](NC(=O)OC(C)(C)C)c4ccccc4)C[C@@](O)([C@@H](OC(=O)c4ccccc4)[C@H]21)C3(C)C [DOCETAXEL ANHYDROUS],–,–,–,–,–,–,–,–,–,–,–,–,–,–,–,–,–,–,–,–,Activity (A549 [25]): 0.13 g; Activity [26]: -0.66%; T/C (A549 [27]): 26.5%
CC(C)(C)c1[nH]cnc1/C=c1\[nH]c(=O)/c(=C/c2ccccc2)[nH]c1=O [PLINABULIN],23.3 to 29.4%,85.1 to 88.9%,86.6 to 89.2%,0.327 g,88.7 to 91.3%,86.3 to 90.8%,56.7%,7.99,5.66%,88 to 88.7%,13.3 to 25.7%,8.46,88.4 to 89.5%,3.89 to 15.5%,1.03 to 11.2%,0.349 g,42.5 to 50.8%,6.33%,61.48%,61.1 to 69.1%,inhibition (Tubulin (Homo sapiens)): 27.9%; inhibition (Tubulin (Homo sapiens); tested as the 2H-labelled form): 30.1%
